Results reported in publication PMC3913854 (Investigational New Drugs, 2013).
Entries after “also recorded” stand apart in the source; their conditions may differ.

Key:
P-glycoprotein (P-gp) = conditions: in vitro transport studies; Nakayama et al., unpublished data, 2012; cited from earlier work
[1] = tested on: patients with advanced cancers; conditions: Japanese patients, N = 26, cited from earlier work
[2] = in vitro; Nakayama et al., unpublished data, 2012; cited from earlier work
[3] = tested on: mutant EGFR kinase (L858R and L861Q); conditions: preclinical, Nakayama et al., unpublished data, 2012; cited from earlier work
murine xenograft models = conditions: cited from earlier work
malignant cell lines = conditions: preclinical; cited from earlier work
[4] = tested on: patients with advanced cancer; experiment: phase 1 dose-escalation study: safety, MTD, DLTs, adverse events; format: in vivo, human
[5] = phase 1 study: plasma pharmacokinetics; format: in vivo, human
[6] = rats; cited from earlier work
advanced solid tumors = experiment: phase 1 study: tumor response; format: in vivo, human; conditions: for clinical benefit rate: CR, PR or SD durable for > 6 cycles
[7] = tested on: breast cancer resistance protein (BCRP); conditions: in vitro transport studies; Nakayama et al., unpublished data, 2012; cited from earlier work
[8] = tested on: EGFR mutant NSCLC cell line HCC4006; conditions: ref data on file; cited from earlier work
[9] = phase 1 study: CSF distribution and protein binding; format: in vivo, human; conditions: 400 mg BID; for Css,avg,u,CSF (steady-state average unbound CSF concentration): n = 5, calculated by Eq. 1
[10] = across an intact or a tumor-compromised BBB; cited from earlier work
[11] = tested on: brain metastases from HER2+ breast cancer; conditions: monotherapy; N = 242; cited from earlier work

CC(C)(O)CC(=O)NCCn1ccc2ncnc(Nc3ccc(Oc4cccc(C(F)(F)F)c4)c(Cl)c3)c21 [TAK-285]
substrate for BBB efflux transporter P-gp (P-glycoprotein (P-gp)): not a substrate | tolerability [1]: generally well tolerated | partial response ([1]; parotid cancer): 1 patient | maximum tolerated dose (MTD) ([1]; twice daily [BID]): 300 mg | transcellular permeability [2]: high | inhibition of mutant EGFR kinase activity [3]: inhibits mutant EGFR kinase activity | antitumor activity (murine xenograft models): has antitumor activity | growth of malignant cell lines (malignant cell lines): inhibits the growth | dose-limiting toxicities ([4]; all cohorts, as summarised in abstract): diarrhea, hypokalemia, and fatigue | tolerability ([4]; at the MTD/RP2D of 400 mg BID): generally well tolerated | dose-proportionality of steady-state exposures ([5]; 50 mg BID to 500 mg BID): greater than dose-proportional | %CV of steady-state t½ ([5]; 400 mg BID): 11% | increase in geometric mean steady-state AUC0-τ ([5]; 10-fold increase in dose, 50 mg BID to 500 mg BID): 29 fold | extent of accumulation ([5]; MTD of 400 mg BID): approximately 3 fold | pharmacokinetic steady-state achieved ([5]; based on similar trough concentrations on days 8, 15 and 21): ≤ 8 days | time of maximum (peak) plasma concentration ([5]; oral, across cohorts, median): 2 to 3 h | slope of linear regression of log (Css,avg) versus log (Dose) ([5]; power model, 95 % CI, 1.26–1.59): 1.43 | %CV in AUC0-τ ([5]; steady-state, MTD of 400 mg BID): 58% | BBB penetration / brain distribution [6]: crosses the intact BBB; also recorded: penetrates the BBB | clinical benefit rate (advanced solid tumors; RP2D cohort, 1 patient): 13% | stable disease (best response) (advanced solid tumors; RP2D cohort, 4 of 8 patients): 50% | complete or partial response (advanced solid tumors; all cohorts): No patient | clinical benefit rate (advanced solid tumors; dose-escalation cohorts, 3 patients): 9% | stable disease (best response) (advanced solid tumors; dose-escalation cohorts, 9 of 33 patients): 27% | substrate for BBB efflux transporter BCRP [7]: not a substrate | inhibition of cell growth [8]: did not inhibit the growth | Css,avg,u,CSF (steady-state average unbound CSF concentration) ([9]; geometric mean (%CV)): 1.54 ng/mL | Css,avg,u,CSF (steady-state average unbound CSF concentration) ([9]; range of individual values): 0.51 to 4.27 ng/mL | Kp ([9]; human, CSF (unbound) / plasma (unbound), oral, Cu,CSF:Cu,p ratio, 3 to 4 h postdose day 15, n = 7, mean (%CV)): 0.663

CS(=O)(=O)CCNCc1ccc(-c2ccc3ncnc(Nc4ccc(OCc5cccc(F)c5)c(Cl)c4)c3c2)o1 [lapatinib, N-{3-chloro-4-[(3-fluorobenzyl)oxy]phenyl}-6-[5-({[2-(methylsulfonyl)ethyl]amino}methyl)-2-furyl]-4-quinazolinamine]
central nervous system (CNS) penetration [10]: negligible | clinical benefit rate [11]: 43% | objective response rate [11]: 6% | patients with ≥ 50 % reduction in CNS tumor size [11]: 8%
